According to ChEMBL document CHEMBL3612057, “Discovery of indolizines containing triazine moiety as new leads for the development of antitumoral agents targeting mitotic events” (2015):
The source made the active and inactive calls.

Experiments:
[1] = system: CCRF-CEM; test: Cytotoxicity against human CCRF-CEM cells assessed as growth inhibition at 10 uM after 24 hrs by SRB assay; type: functional
[2] = system: HL-60(TB); test: Cytotoxicity against human HL-60(TB) cells assessed as growth inhibition at 10 uM after 24 hrs by SRB assay; type: functional
[3] = system: K562; test: Cytotoxicity against human K562 cells assessed as growth inhibition at 10 uM after 24 hrs by SRB assay; type: functional
[4] = system: RPMI-8226; test: Cytotoxicity against human RPMI8226 cells assessed as growth inhibition at 10 uM after 24 hrs by SRB assay; type: functional
[5] = system: SR; test: Cytotoxicity against human SR cells assessed as growth inhibition at 10 uM after 24 hrs by SRB assay; type: functional; details: read-out: GI
[6] = system: A549; test: Cytotoxicity against human A549 cells assessed as growth inhibition at 10 uM after 24 hrs by SRB assay; type: functional
[7] = system: HOP-62; test: Cytotoxicity against human HOP62 cells assessed as growth inhibition at 10 uM after 24 hrs by SRB assay; type: functional
[8] = system: HOP-92; test: Cytotoxicity against human HOP92 cells assessed as growth inhibition at 10 uM after 24 hrs by SRB assay; type: functional
[9] = system: NCI-H226; test: Cytotoxicity against human NCI-H226 cells assessed as growth inhibition at 10 uM after 24 hrs by SRB assay; type: functional
[10] = system: NCI-H460; test: Cytotoxicity against human NCI-H460 cells assessed as growth inhibition at 10 uM after 24 hrs by SRB assay; type: functional
[11] = system: NCI-H522; test: Cytotoxicity against human NCI-H522 cells assessed as growth inhibition at 10 uM after 24 hrs by SRB assay; type: functional
[12] = system: HCT-116; test: Cytotoxicity against human HCT116 cells assessed as growth inhibition at 10 uM after 24 hrs by SRB assay; type: functional
[13] = system: SF-295; test: Cytotoxicity against human SF295 cells assessed as growth inhibition at 10 uM after 24 hrs by SRB assay; type: functional
[14] = system: SF-539; test: Cytotoxicity against human SF539 cells assessed as growth inhibition at 10 uM after 24 hrs by SRB assay; type: functional
[15] = system: SNB-75; test: Cytotoxicity against human SNB75 cells assessed as growth inhibition at 10 uM after 24 hrs by SRB assay; type: functional
[16] = system: U-251; test: Cytotoxicity against human U251 cells assessed as growth inhibition at 10 uM after 24 hrs by SRB assay; type: functional
[17] = system: Malme-3M; test: Cytotoxicity against human MALME-3M cells assessed as growth inhibition at 10 uM after 24 hrs by SRB assay; type: functional
[18] = system: MDA-MB-435; test: Cytotoxicity against human MDA-MB-435 cells assessed as growth inhibition at 10 uM after 24 hrs by SRB assay; type: functional
[19] = system: SK-MEL-28; test: Cytotoxicity against human SK-MEL-28 cells assessed as growth inhibition at 10 uM after 24 hrs by SRB assay; type: functional
[20] = system: SK-MEL-5; test: Cytotoxicity against human SK-MEL-5 cells assessed as growth inhibition at 10 uM after 24 hrs by SRB assay; type: functional
[21] = system: UACC-257; test: Cytotoxicity against human UACC257 cells assessed as growth inhibition at 10 uM after 24 hrs by SRB assay; type: functional
[22] = system: UACC-62; test: Cytotoxicity against human UACC62 cells assessed as growth inhibition at 10 uM after 24 hrs by SRB assay; type: functional
[23] = system: OVCAR-3; test: Cytotoxicity against human OVCAR3 cells assessed as growth inhibition at 10 uM after 24 hrs by SRB assay; type: functional
[24] = system: OVCAR-4; test: Cytotoxicity against human OVCAR4 cells assessed as growth inhibition at 10 uM after 24 hrs by SRB assay; type: functional
[25] = system: OVCAR-8; test: Cytotoxicity against human OVCAR8 cells assessed as growth inhibition at 10 uM after 24 hrs by SRB assay; type: functional
[26] = system: NCI/ADR-RES; test: Cytotoxicity against human NCI/ADR-RES cells assessed as growth inhibition at 10 uM after 24 hrs by SRB assay; type: functional
[27] = system: SK-OV-3; test: Cytotoxicity against human SKOV3 cells assessed as growth inhibition at 10 uM after 24 hrs by SRB assay; type: functional
[28] = system: 786-0; test: Cytotoxicity against human 786-0 cells assessed as growth inhibition at 10 uM after 24 hrs by SRB assay; type: functional
[29] = system: ACHN; test: Cytotoxicity against human ACHN cells assessed as growth inhibition at 10 uM after 24 hrs by SRB assay; type: functional
[30] = system: CAKI-1; test: Cytotoxicity against human CAKI-1 cells assessed as growth inhibition at 10 uM after 24 hrs by SRB assay; type: functional
[31] = system: RXF 393; test: Cytotoxicity against human RXF393 cells assessed as growth inhibition at 10 uM after 24 hrs by SRB assay; type: functional
[32] = system: TK-10; test: Cytotoxicity against human TK10 cells assessed as growth inhibition at 10 uM after 24 hrs by SRB assay; type: functional
[33] = system: PC-3; test: Cytotoxicity against human PC3 cells assessed as growth inhibition at 10 uM after 24 hrs by SRB assay; type: functional
[34] = system: MCF7; test: Cytotoxicity against human MCF7 cells assessed as growth inhibition at 10 uM after 24 hrs by SRB assay; type: functional
[35] = system: MDA-MB-231; test: Cytotoxicity against human MDA-MB-231 cells assessed as growth inhibition at 10 uM after 24 hrs by SRB assay; type: functional
[36] = system: Hs-578T; test: Cytotoxicity against human Hs578T cells assessed as growth inhibition at 10 uM after 24 hrs by SRB assay; type: functional
[37] = system: T47D; test: Cytotoxicity against human T47D cells assessed as growth inhibition at 10 uM after 24 hrs by SRB assay; type: functional
[38] = species on record: Ovis aries; test: Inhibition of sheep tubulin polymerization at 100 uM by fluorescence assay

COc1nc(OC)nc(-c2cc(C(=O)c3cc(OC)c(OC)c(OC)c3)n3ccccc23)n1
35%: inhibition of growth at 10 µM ([18]; MDA-MB-435, 24 h, read-out: GI)
11%: inhibition of growth at 10 µM ([17]; read-out: GI)
20%: inhibition of growth at 10 µM [5]
10%: inhibition of growth at 10 µM ([3]; K562, 24 h, read-out: GI)
inactive: growth inhibition (GI) [1] | growth inhibition (GI) [2] | growth inhibition (GI) [4] | growth inhibition (GI) [6] | growth inhibition (GI) [7] | growth inhibition (GI) [8] | growth inhibition (GI) [9] | growth inhibition (GI) [10] | growth inhibition (GI) [11] | growth inhibition (GI) [12] | growth inhibition (GI) [13] | growth inhibition (GI) [14] | growth inhibition (GI) [15] | growth inhibition (GI) [16] | growth inhibition (GI) [19] | growth inhibition (GI) [20] | growth inhibition (GI) [21] | growth inhibition (GI) [22] | growth inhibition (GI) [23] | growth inhibition (GI) [24] | growth inhibition (GI) [25] | growth inhibition (GI) [26] | growth inhibition (GI) [27] | growth inhibition (GI) [28] | growth inhibition (GI) [29] | growth inhibition (GI) [30] | growth inhibition (GI) [31] | growth inhibition (GI) [32] | growth inhibition (GI) [33] | growth inhibition (GI) [34] | growth inhibition (GI) [35] | growth inhibition (GI) [36] | growth inhibition (GI) [37] | inhibition [38]

COc1nc(OC)nc(-c2cc(C(=O)c3ccc(C)cc3)n3ccccc23)n1
19%: inhibition of growth at 10 µM ([20]; SK-MEL-5, 24 h, read-out: GI)
10%: inhibition of growth at 10 µM ([34]; MCF7, 24 h, read-out: GI)
22%: inhibition of growth at 10 µM [5]
18%: inhibition of growth at 10 µM ([15]; SNB-75, 24 h, read-out: GI)
inactive: growth inhibition (GI) [2] | growth inhibition (GI) [3] | growth inhibition (GI) [6] | growth inhibition (GI) [7] | growth inhibition (GI) [8] | growth inhibition (GI) [9] | growth inhibition (GI) [10] | growth inhibition (GI) [11] | growth inhibition (GI) [13] | growth inhibition (GI) [14] | growth inhibition (GI) [16] | growth inhibition (GI) [17] | growth inhibition (GI) [18] | growth inhibition (GI) [19] | growth inhibition (GI) [21] | growth inhibition (GI) [22] | growth inhibition (GI) [23] | growth inhibition (GI) [24] | growth inhibition (GI) [25] | growth inhibition (GI) [26] | growth inhibition (GI) [27] | growth inhibition (GI) [28] | growth inhibition (GI) [29] | growth inhibition (GI) [31] | growth inhibition (GI) [32] | growth inhibition (GI) [36] | inhibition [38]
13%: inhibition of growth at 10 µM ([1]; read-out: GI) | inhibition of growth at 10 µM ([33]; PC-3, 24 h, read-out: GI)
35%: inhibition of growth at 10 µM ([35]; MDA-MB-231, 24 h, read-out: GI)
15%: inhibition of growth at 10 µM ([37]; read-out: GI)
12%: inhibition of growth at 10 µM ([12]; HCT-116, 24 h, read-out: GI)
26%: inhibition of growth at 10 µM ([4]; RPMI-8226, 24 h, read-out: GI)
43%: inhibition of growth at 10 µM ([30]; CAKI-1, 24 h, read-out: GI)
